Reference: ChEMBL document CHEMBL4616656, “Diisonitrile-Mediated Reactive Oxygen Species Accumulation Leads to Bacterial Growth Inhibition” (J Nat Prod, 2020)
Calls of active or inactive are those of the source. No cut-off for these calls is given here.

Experiments:
[1] = tested on: Bacillus subtilis subsp. subtilis str. 168; experiment: Copper chelating activity in Bacillus subtilis 168 assessed as reduction in cytochrome c oxidase activity by measuring increase in ROS level at 10 uM measured over 40 mins by H2DCFDA staining based fluorescence method relative to control
Bacillus subtilis [2] = experiment: Antibacterial activity against Bacillus subtilis 168 at 10 uM after 12 hrs relative to control; assay type: functional
Bacillus subtilis [3] = experiment: microbe, parasite or virus in culture; conditions: subsp. subtilis str. 168, 12 h
Description: Antibacterial activity against Bacillus subtilis 168 after 12 hrs

Mushroom tyrosinase = Mushroom tyrosinase (Agaricus bisporus, UniProt O42713+Q00024+C7FF04+C7FF05); experiment: Inhibition of mushroom tyrosinase using L-DOPA as substrate preincubated for 10 mins followed by substrate addition and measured after 15 mins by spectrophotometric method
Enterococcus faecalis = experiment: Antibacterial activity against Enterococcus faecalis ATCC 29212 at 10 uM after 12 hrs relative to control; assay type: functional
Pseudomonas aeruginosa = experiment: Antibacterial activity against Pseudomonas aeruginosa ATCC 27853 at 10 uM after 12 hrs relative to control; assay type: functional
Acinetobacter baumannii = experiment: Antibacterial activity against Acinetobacter baumannii ATCC 19606 at 10 uM after 12 hrs relative to control; assay type: functional, ATCC 19606 = CIP 70.34 = JCM 6841
[4] = tested on: Bacillus subtilis subsp. subtilis str. 168; experiment: Copper chelating activity in Bacillus subtilis 168 assessed as reduction in cellular copper content at 100 uM incubated for 1 hr by ICP-MS analysis relative to control; design: scale not given: the % may be the effect or the level left
Bacillus subtilis [5] = experiment: Antibacterial activity against Bacillus subtilis 168 in presence of CuCl2 by paper disk assay; assay type: functional, organism-based; conditions: subsp. subtilis str. 168
Bacillus subtilis [6] = experiment: Antibacterial activity against Bacillus subtilis 168 in presence of Fe2+ by paper disk assay; assay type: functional, organism-based; conditions: subsp. subtilis str. 168
Bacillus subtilis [7] = experiment: Antibacterial activity against Bacillus subtilis 168 in presence of Fe3+ by paper disk assay; assay type: functional, organism-based; conditions: subsp. subtilis str. 168
[8] = tested on: Bacillus subtilis subsp. subtilis str. 168; experiment: Copper chelating activity in Bacillus subtilis 168 assessed as reduction in cytochrome c oxidase activity by measuring decrease in intracellular ATP level at 10 uM incubated for 15 to 90 mins by bioluminescence method relative to control; assay type: cell-based; design: scale not given: the % may be the effect or the level left
Klebsiella pneumoniae = experiment: Antibacterial activity against Klebsiella pneumoniae CMCC 46117 at 10 uM after 12 hrs relative to control; assay type: functional
Escherichia coli = experiment: Antibacterial activity against Escherichia coli BL21 at 10 uM after 12 hrs relative to control; assay type: functional
Staphylococcus aureus = experiment: Antibacterial activity against Staphylococcus aureus ATCC 43300 at 10 uM after 12 hrs relative to control; assay type: functional
[9] = tested on: Acinetobacter baumannii ATCC 19606 = CIP 70.34 = JCM 6841; experiment: Copper chelating activity in Acinetobacter baumannii ATCC 19606 assessed as increase in ROS level at 10 uM measured over 40 mins by H2DCFDA staining based fluorescence method
Bacillus subtilis [10] = experiment: Antibacterial activity against Bacillus subtilis 168 assessed as inhibition rate at 100 uM after 12 hrs relative to control; assay type: functional; conditions: subsp. subtilis str. 168, 12 h
[11] = Bacillus subtilis subsp. subtilis str. 168

SMILES	Activity [1]	Activity (Bacillus subtilis [2]; [11])	also measured
COc1cc(Cc2cnc(N)nc2N)cc(OC)c1OC [TRIMETHOPRIM]			IC50 (Bacillus subtilis [3]): 0.3 µM
C[C@H](CC(=O)NCCCC[C@@H](CO)NC(=O)C[C@@H](C)C#N)NC=O	inactive	inactive	
CC(=O)OC[C@H](CCCCNC(=O)C[C@@H](C)NC=O)NC(=O)C[C@@H](C)NC=O	inactive	inactive	
C[C@@H](C#N)CC(=O)NCCCC[C@@H](CO)NC(=O)C[C@@H](C)C#N	Active	Active	IC50 (Mushroom tyrosinase): 89.6 µM
CC(C)CCC(=O)NC[C@@H]1CC[C@H](NC(=O)C[C@@H](C)C#N)C(O)O1 (stereo partly specified)	inactive	inactive	
CC(C#N)CC(=O)NC[C@@H]1CC[C@H](NC(=O)C[C@@H](C)C#N)C(O)O1 (stereo partly specified)			Activity (Enterococcus faecalis): 20 - 30%; Activity (Pseudomonas aeruginosa): 20 - 30%; Activity (Acinetobacter baumannii): 57%; Activity [4]: 24%; Activity (Bacillus subtilis [5]): inactive; Activity (Bacillus subtilis [6]): Active; Activity (Bacillus subtilis [7]): Active; Activity [8]: 20%; Activity (Klebsiella pneumoniae): 20 - 30%; fold change (FC) [1]: 9; IC50 (Mushroom tyrosinase): 89.6 µM; Activity (Escherichia coli): 20 - 30%; Activity (Staphylococcus aureus): 20 - 30%; Activity [9]: Active; Activity (Bacillus subtilis [2]): 50%; inhibition at 100 µM (Bacillus subtilis [10]): 56 to 60%
CC(C)CC(=O)NC[C@@H]1CC[C@H](NC(=O)CC(C)C)C(O)O1 (stereo partly specified)	inactive	inactive	
C[C@H](CC(=O)N[C@H]1CC[C@@H](CNC(=O)C[C@@H](C)C#N)OC1O)NC=O (stereo partly specified)	inactive	inactive	

More lines, main results first:

Activity [1]	SMILES	Activity (Bacillus subtilis [2]; [11])	also measured
inactive	C[C@H](CC(=O)NC[C@@H]1CC[C@H](NC(=O)C[C@@H](C)NC=O)C(O)O1)NC=O (stereo partly specified)	inactive	
Active	CC(=O)OC[C@H](CCCCNC(=O)C[C@@H](C)C#N)NC(=O)C[C@@H](C)C#N	Active	IC50 (Mushroom tyrosinase): 89.6 µM
inactive	C[C@H](CC(=O)N[C@H](CO)CCCCNC(=O)C[C@@H](C)C#N)NC=O	inactive	
inactive	CC(C)=CCC(=O)NC[C@@H]1CC[C@H](NC(=O)C[C@@H](C)C#N)C(O)O1 (stereo partly specified)	inactive	
inactive	C[C@H](CC(=O)NCCCC[C@@H](CO)NC(=O)C[C@@H](C)NC=O)NC=O	inactive	
